The test system of data set [1] is P. falciparum asexual blood stages. The conditions noted are these: read-out: in vitro IC50 in P. falciparum cultures, including gametocytes; cited from earlier work.
For data set [2], the system named is P. berghei oocysts in A. gambiae mosquitoes. Kind of data set: Membrane blood feeding assay (oocyst production in mosquitoes). Format: in vivo, Plasmodium berghei. The conditions noted are these: 10 µM in blood meal; 7 days. On the procedure:
The Anopheles gambiae mosquito G3 strain was reared under standard conditions at 28 °C and 80% humidity. One to two days before blood feeding, the mosquitoes were fed penicillin (20 U/mL) and streptomycin (20 μg/mL) in the sugar meal (10% sucrose). Mice were infected with the P. berghei mutant Bergreen, which constitutively expresses GFP [18]. Blood was obtained by heart puncture of one mouse, and aliquoted in two tubes that were immediately placed at 37 °C. YAT2150 at a final concentration of 10 µM diluted from a stock solution in dimethyl sulfoxide (DMSO) was added to one tube. The control tube contained the same concentration of DMSO (0.5%). After the feeding carried out in membrane feeders for 60 min, mosquitoes were kept at 19 °C and provided with sugar meal containing the antibiotics as above. Seven days after feeding, the mosquitoes were dissected in PBS, mounted in […]®, and GFP-positive oocysts were counted under an Axioskop 2 microscope (Zeiss, Oberkochen, Germany).

Data set [3] is described as follows: Human plasma protein binding (Rapid Equilibrium Dialysis). The class given is in vitro ADME. The conditions noted are these: pH 7.2, RED, 4 h at 37 °C. The protocol: The assay was carried out by Rapid Equilibrium Dialysis (RED). The compounds were dissolved at 5 μM in human plasma and added to the corresponding insert of the RED device (Thermo Fisher Scientific, Inc., Waltham, MA, USA), and dialysis was performed for 4 h at 37 °C in […], 25 mM tris-HCl, pH 7.2 (Tris BupH^TM, Thermo Fisher Scientific, Inc.). Then, 50-µL aliquots from each chamber were transferred to empty vials, to which 50 µL of dialysis buffer was added. As control, 50 µL of plasma was mixed with 50 µL of buffer. Three hundred µL of acetonitrile was added to all the samples, which were analyzed by ultra-performance liquid chromatography with tandem mass spectrometry as previously described.

Data set [4] concerns the target T1, CYP1A2 (Homo sapiens, UniProt P05177).
T1 sequence (P05177 1-516): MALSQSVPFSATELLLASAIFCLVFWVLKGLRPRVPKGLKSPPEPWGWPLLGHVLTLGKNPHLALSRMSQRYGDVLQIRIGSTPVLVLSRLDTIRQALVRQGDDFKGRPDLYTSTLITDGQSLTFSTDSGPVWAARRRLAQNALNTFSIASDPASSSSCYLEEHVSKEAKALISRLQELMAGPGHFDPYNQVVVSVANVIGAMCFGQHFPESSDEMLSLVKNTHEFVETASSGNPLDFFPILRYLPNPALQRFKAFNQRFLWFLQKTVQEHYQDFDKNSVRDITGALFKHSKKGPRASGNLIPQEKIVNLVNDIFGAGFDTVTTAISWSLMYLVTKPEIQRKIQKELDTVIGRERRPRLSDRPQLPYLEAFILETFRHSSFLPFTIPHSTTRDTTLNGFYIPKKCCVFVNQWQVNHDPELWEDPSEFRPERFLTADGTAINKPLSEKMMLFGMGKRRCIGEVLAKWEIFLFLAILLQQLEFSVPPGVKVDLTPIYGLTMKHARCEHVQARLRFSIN
The conditions noted are these: cited from earlier work.

In data set [5] the test system is LYWIYY peptide. The data set is described as follows: Transmission electron microscopy of peptide aggregation. Format: biochemical, Plasmodium falciparum. The conditions noted are these: 100 nM, 25 µM peptide, 24 h after disaggregation. The protocol: To disaggregate peptides before the assay, 1 mg of lyophilized peptide was dissolved in 1 mL of trifluoroacetic acid (TFA), which, after thoroughly mixing, was evaporated under a N2 stream, and 500 µL of 1,1,1,3,3,3-hexafluoro-2-propanol (HFIP; Honeywell Fluka-Thermo Fisher Scientific, Inc.) were added, mixed well, and evaporated as mentioned before (repeated twice to fully remove TFA). Then, 500 µL of HFIP was added, and the solution was divided into aliquots and placed in a desiccator overnight. Afterward, 500 µL of PBS was added to each aliquot to have a final peptide concentration of 25 µM, and, to ensure minimal aggregation (t0), the samples were sonicated for 10 min in a water bath sonicator (FB15053 ultrasonic bath, Thermo Fisher Scientific, Inc.). To study the effect of YAT2150 on peptide aggregation, the compound was added at a final concentration of 100 nM and incubated for 24 h at 37 °C under stirring at 1400 rpm (t24). For disaggregation analysis, a 25 µM peptide aliquot was first pre-aggregated for 24 h (37 °C, 1400 rpm); after this time, YAT2150 was added at a final concentration of 100 nM, and the samples were incubated for an additional 24 h in the same conditions (t48). Control samples in the absence of YAT2150 were included. A 5-μL drop of each sample was deposited onto a carbon-coated copper grid (Ted Pella, Redding, CA, USA) for 1 h. […]

The test system of data set [6] is P. falciparum asexual blood stages. Kind of data set: microbe, parasite or virus in culture. The conditions noted are these: Plasmodium falciparum.
Method: The asexual blood stages of P. falciparum parasites of the 3D7 strain (Malaria Research and Reference Reagent Resource Center, Manassas, VA, USA) were cultured in group B human RBCs at 3% hematocrit, which was kept throughout the experiments, and incubated in RPMIc. Parasites were maintained at 37 °C under an atmosphere of 5% O2, 5% CO2, and 90% N2. […] The parasites were then cultured under standard conditions for 48 h, allowing for a complete replication cycle. After the incubation period, 3 µL of culture from each well was mixed with 197 µL of PBS containing 0.1 µM Syto 11 (Thermo Fisher Scientific, Inc.) to obtain a final concentration of 1 × 10^6 to 10 × 10^6 cells/mL. Parasitemia levels were measured using an LSRFortessa flow cytometer equipped with a standard configuration of four lasers and 20 parameters. Single-cell populations were identified on a forward-side scatter plot. […] The inhibition data were then transformed using sigmoidal fitting to determine IC50.
For stage arrest assays, P. falciparum cultures were tightly synchronized in schizont stages by repeated treatment with 70% Percoll (GE Healthcare, Chicago, IL, USA) [26, 27]. […] Pictures were taken with a Nikon Eclipse 50i microscope equipped with a DS-Fi1 camera (Nikon Corporation, Tokyo, Japan).
In data set [7] the test system is P. falciparum gametocytes. The conditions noted are these: cited from earlier work.

This is an account of results in publication PMC11514582, “Leveraging the Aggregated Protein Dye YAT2150 for Malaria Chemotherapy” (Pharmaceutics, 2024).

Like-named read-outs stand apart in the source and are kept apart here.

As a reminder, the IC50 is the midpoint of a concentration-inhibition curve. By fraction unbound is commonly meant free concentration divided by total concentration. A low value points to extensive binding. Broadly, the IC80 is the point of the concentration-response curve where the effect stands at 80%. For the compound `CCN(CC)c1ccc(/C=C/c2cc[n+](CCCCCCCCCC[n+]3ccc(/C=C/c4ccc(N(CC)CC)cc4)c(C)c3)cc2C)cc1` [YAT2150], the IC50 in data set [1] was below 100 nM; in data set [6] (3D7, 48 h, read-out: IC50 in P. falciparum asexual blood stages), 90.5 ± 7 nM; in data set [6] (2 h, read-out: IC50 ± SEM), 224 ± 27 nM; in data set [7] (read-out: in vitro IC50 for P. falciparum gametocyte cultures) it was around 100 nM; in data set [7] (stage I–III (early) gametocytes, read-out: IC50 in P. falciparum stage I–III gametocytes) it was 95 ± 2 nM; in data set [7] (stage V gametocytes, read-out: IC50 in P. falciparum stage V gametocytes (converted)), 103 nM. In data set [2], the “oocyst number/midgut compared to the control” value is on record as “significantly reduced”. Also, in data set [2], the “prevalence of infection compared to the control” value is listed as “significantly reduced”. Further, the fraction unbound at 4 h, 5 μM in data set [3] was 0.003. In addition, the “CYP1A2 inhibition (% at 10 µM)” value in data set [4] is reported as “around 50%”. Moreover, the “effect on LYWIYY aggregation (TEM)” value in data set [5] is “significantly abolished after 24 h the formation of LYWIYY amyloid fibrils”. The 80% effect concentration (IC80) in data set [6] (3D7, read-out: IC80 (stage arrest assay)) worked out at 200 nM.
